Laboratory results taken from US9174948B2, “Desferrithiocin polyether analogues” (University of Florida Research Foundation, Inc., priority 2007, dated 2015).
“Also recorded” adds a separate entry of the source. Where two headings read alike, the source gives them in different places. Marks after values point to notes of the source that are not given here.

Columns and labels:
[1] = tested on: Non-Iron-Overloaded Rodents; details: po, cited from earlier work; for Iron-Clearing Efficiency (%): rats, 300 μmol/kg, historical data
[2] = earlier preclinical studies; cited from earlier work
[3] = tested on: Iron-Overloaded Cebus apella Primates; details: po, cited from earlier work; for Iron-Clearing Efficiency (%): Cebus apella, 150 μmol/kg, historical data
[4] = 2:1 complex with Fe(III); cited from earlier work
[5] = Chelator tissue distribution in rodents; format: in vivo, rat (male Sprague-Dawley); details: rats, sc, 300 μmol/kg
Protocol: Collection of Tissue Distribution Samples from Rodents: Male Sprague-Dawley rats (250-350 g) were given a single sc injection of the monosodium salts of 6 and 9 prepared as described above at a dose of 300 μmol/kg. At times 0.5, 1, 2, and 4 h after dosing (n=3 rats per time point) the animals were euthanized by exposure to CO2 gas. Blood was obtained via cardiac puncture into vacutainers containing sodium citrate. The blood was centrifuged, and the plasma was separated for analysis. The liver, heart, kidneys, and pancreas were then removed from the animals. […] J. Med. Chem. 2006, 49, 2772-2783]. In the current study, tissues from the (S)-3′-(HO)-DADFT-PE (9) and (S)-5′-(HO)-DADFT-PE (6) treated rats were prepared for HPLC analysis by homogenizing them in 0.5 N HClO4 at a ratio of 1:3 (w/v). Then, as a rinse, CH3OH at a ratio of 1:3 (w/v) was added and the mixture was stored at −20° C. for 30 min. This homogenate was centrifuged. The supernatant was diluted with mobile phase A (95% buffer [25 mM KH2PO4, pH 3.0]/5% CH3CN), vortexed, and filtered with a 0.2 μm membrane. Analytical separation was performed on a Discovery RP Amide C16 HPLC system with UV detection at 310 nm as described previously [Bergeron, R. J., Wiegand, J., Weimar, W. R., McManis, J. S., Smith, R. E. and Abboud, K. A. Iron Chelation Promoted by Desazadesferrithiocin Analogues: An Enantioselective Barrier. Chirality 2003, 15, 593-599; Bergeron, R. J., Wiegand, J., Ratliff-Thompson, K. and Weimar, W. R. The Origin of the Differences in (R)- and (S)-Desmethyldesferrithiocin: Iron-Clearing Properties. Ann. N.Y. Acad. Sci. 1998, 850, 202-216]. Mobile phase and chromatographic conditions were as follows: solvent A, 5% CH3CN/95% buffer; solvent B, 60% CH3CN/40% buffer. The concentrations were calculated from the peak area fitted to calibration curves by nonweighted least-squares linear regression with Rainin Dynamax HPLC Method Manager software (Rainin Instrument Co.).

[6] = tested on: Non-Iron-Overloaded Rodents; assay: Chelator-induced iron clearance in non-iron-overloaded, bile duct-cannulated rats; format: in vivo, rat (male Sprague-Dawley); details: po, 300 μmol/kg, 1 vs 3, 4 vs 6, 7 vs 9
From the text: Chelator-Induced Iron Clearance in Non-Iron-Overloaded Rodents. […] J. Med. Chem. 2006, 49, 2772-2783]. Recall that iron-clearing efficiency (ICE) is defined as (net iron excretion)/(total iron-binding capacity of the chelator), expressed as a percent. The relative ICE values of compounds 1 and 2 were in keeping with their log Papp values: the more lipophilic, the larger log Papp, the more efficient the chelator. […] However, the ICE trend was in keeping with the biliary ferrokinetics (FIG. 3) and liver concentration of the chelators, for example, 3>1 (FIG. 4).
Cannulation of Bile Duct in Non-Iron-Overloaded Rats has been described previously. […]. […] The urine sample(s) was taken at 24 h intervals. Sample collection and handling are as previously described [Bergeron, R. J., Streiff, R. R., Creary, E. A., Daniels, R. D., Jr., King, W., Luchetta, G., Wiegand, J., Moerker, T. and Peter, H. H. A Comparative Study of the Iron-Clearing Properties of Desferrithiocin Analogues with Desferrioxamine B in a Cebus Monkey Model. Blood 1993, 81, 2166-2173; Bergeron, R. J., Streiff, R. R., Wiegand, J., Vinson, J. R. T., Luchetta, G., Evans, K. M., Peter, H. and Jenny, H.-B. A Comparative Evaluation of Iron Clearance Models. Ann. N.Y. Acad. Sci. 1990, 612, 378-393].
In the iron-clearing experiments, the rats were given a single 300 μmol/kg dose of drugs 1-9 orally (po).
J. Med. Chem. 1999, 42, 2432-2440].

[7] = tested on: kidney proximal and distal tubules; details: rats, po, 237 μmol/kg/dose twice daily (474 μmol/kg/day) for 7 days; cited from earlier work
[8] = target: Sudlow types I and II albumin binding sites (Rattus norvegicus, UniProt P02770); assay: Ligand-albumin binding in bile duct-cannulated rodents treated with sodium benzoate; details: rats; for Iron-Clearing Efficiency (%): chelator 300 μmol/kg po plus sodium benzoate 250 mg/kg/dose sc × 6 doses; for fold increase in ICE with sodium benzoate: chelator 300 μmol/kg po, with vs without sodium benzoate
From the text: We elected to focus on a drug that is under clinical trials with Genzyme, (S)-4′-(HO)-DADFT (1).

[9] = listed as (S)-4′-(HO)-DADFT-PE (3)
[10] = listed as (S)-4′-(HO)-DADFT (1)

Chain of Sudlow types I and II albumin binding sites (P02770 25-608): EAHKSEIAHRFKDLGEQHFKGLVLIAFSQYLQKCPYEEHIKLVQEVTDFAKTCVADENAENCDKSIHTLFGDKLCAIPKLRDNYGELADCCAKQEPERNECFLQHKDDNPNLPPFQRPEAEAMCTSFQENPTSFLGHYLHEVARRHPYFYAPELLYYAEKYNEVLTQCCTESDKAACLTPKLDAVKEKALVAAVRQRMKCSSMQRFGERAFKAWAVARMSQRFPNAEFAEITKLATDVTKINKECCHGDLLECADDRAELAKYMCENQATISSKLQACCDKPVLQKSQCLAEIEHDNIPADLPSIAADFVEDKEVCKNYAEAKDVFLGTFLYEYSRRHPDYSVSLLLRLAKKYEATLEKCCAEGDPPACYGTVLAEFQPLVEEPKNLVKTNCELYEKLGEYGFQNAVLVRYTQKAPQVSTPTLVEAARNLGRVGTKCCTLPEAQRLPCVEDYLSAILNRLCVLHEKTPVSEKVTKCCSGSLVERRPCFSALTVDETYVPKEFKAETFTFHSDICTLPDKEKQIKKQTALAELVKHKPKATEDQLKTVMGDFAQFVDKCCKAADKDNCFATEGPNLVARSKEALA

| Compound | toxicity / nephrotoxicity in words [2] | kidney concentration ([5]; 0.5 h) [nmol/g wet weight] | kidney concentration ([5]; 1 h) [nmol/g wet weight] | kidney concentration ([5]; 4 h) [nmol/g wet weight] | Iron-Clearing Efficiency (%) [1] [%] | Iron-Clearing Efficiency (%) [3] [%] | distal tubules under light microscopy [7] | proximal tubules under light microscopy [7] | Iron-Clearing Efficiency (%) [8] [%] | fold increase in ICE with sodium benzoate [8] [fold] | also measured |
| --- | --- | --- | --- | --- | --- | --- | --- | --- | --- | --- | --- |
| C[C@]1(C(=O)O)CSC(c2ncccc2O)=N1 [DFT, (S)-4,5-dihydro-2-(3-hydroxy-2-pyridinyl)-4-methyl-4-thiazolecarboxylic acid, reference compound] | severely nephrotoxic | – | – | – | – | – | – | – | – | – | ICE ([1]; bile duct-cannulated rodent model): 5.5%; ICE ([3]; iron-overloaded Cebus apella primate): 16%; cumulative formation constant [4]: 4e+29 M⁻¹ |
| COCCOCCOCCOc1ccc(C2=N[C@@](C)(C(=O)O)CS2)c(O)c1 [Compound 3, (S)-4,5-dihydro-2-[2-hydroxy-4-(3,6,9-trioxadecyloxy)phenyl]-4-methyl-4-thiazolecarboxylic acid] | profoundly reduced nephrotoxicity; also recorded: profoundly less nephrotoxic | 368±74 | 252±10 | 34±13 | 5.5±1.9 | 25.4±7.4 | occasional vacuolization but were otherwise normal | indistinguishable from those of the control animals | 8.8±2.4 | 1.6 | concentration at 0.5 h ([5]; male, Sprague-Dawley, rat, plasma, 0.5 h): 194 ± 60 µM; decrease of liver concentration from 0.5 h to 1 h [5]: 6%; liver concentration ([5]; 0.5 h): 339±35 nmol/g wet weight; drop in plasma concentration relative to 0.5 h ([5]; 1 h): 28%; drop in plasma concentration relative to 0.5 h ([5]; 2 h): 92%; kidney concentration ([5]; 2 h): 41±3 nmol/g wet weight; pancreas concentration ([5]; 2 h): ≈ 30 nmol/g wet weight; drop in plasma concentration relative to 0.5 h ([5]; 4 h): 97%; Iron-Clearing Efficiency (%) [1, 9]: 5.5 ± 1.9%; ICE of the polyether relative to that of the parent ligand [6]: 500%; Iron-Clearing Efficiency (%) [8, 9]: 8.8 ± 2.4^c % |
| C[C@]1(C(=O)O)CSC(c2ccc(O)cc2O)=N1 [Compound 1, (S)-2-(2,4-dihydroxyphenyl)-4,5-dihydro-4-methyl-4-thiazolecarboxylic acid] | no geno- or reproductive toxicity and only mild nephrotoxicity at high doses | 361±56 | 179±4 | 27±7 | 1.1±0.8 | 16.8±7.2 | moderate to severe vacuolization | regional, moderate to severe vacuolization in the proximal tubules, a loss of the brush border, and tubular extrusions toward the lumen | 12.0±2.6 | 10.9 | pancreas concentration ([5]; 4 h): undetectable; Iron-Clearing Efficiency (%) [1, 10]: 1.1 ± 0.8%; Iron-Clearing Efficiency (%) [8, 10]: 12.0 ± 2.6^b % |
